These results are taken from patent US12492188B2, “1H-benzo[D]imidazole derivatives as TLR9 inhibitors for the treatment of fibrosis” (BRISTOL-MYERS SQUIBB COMPANY, priority 2020, dated 2025).

What all share (assay type): cell-based
One test addresses T1, human TLR8 (Homo sapiens, UniProt Q9NR97).
T1 construct: host or cells: HEK-Blue cells (HEK293-derived reporter line)
T1 sequence (Q9NR97 27-1041): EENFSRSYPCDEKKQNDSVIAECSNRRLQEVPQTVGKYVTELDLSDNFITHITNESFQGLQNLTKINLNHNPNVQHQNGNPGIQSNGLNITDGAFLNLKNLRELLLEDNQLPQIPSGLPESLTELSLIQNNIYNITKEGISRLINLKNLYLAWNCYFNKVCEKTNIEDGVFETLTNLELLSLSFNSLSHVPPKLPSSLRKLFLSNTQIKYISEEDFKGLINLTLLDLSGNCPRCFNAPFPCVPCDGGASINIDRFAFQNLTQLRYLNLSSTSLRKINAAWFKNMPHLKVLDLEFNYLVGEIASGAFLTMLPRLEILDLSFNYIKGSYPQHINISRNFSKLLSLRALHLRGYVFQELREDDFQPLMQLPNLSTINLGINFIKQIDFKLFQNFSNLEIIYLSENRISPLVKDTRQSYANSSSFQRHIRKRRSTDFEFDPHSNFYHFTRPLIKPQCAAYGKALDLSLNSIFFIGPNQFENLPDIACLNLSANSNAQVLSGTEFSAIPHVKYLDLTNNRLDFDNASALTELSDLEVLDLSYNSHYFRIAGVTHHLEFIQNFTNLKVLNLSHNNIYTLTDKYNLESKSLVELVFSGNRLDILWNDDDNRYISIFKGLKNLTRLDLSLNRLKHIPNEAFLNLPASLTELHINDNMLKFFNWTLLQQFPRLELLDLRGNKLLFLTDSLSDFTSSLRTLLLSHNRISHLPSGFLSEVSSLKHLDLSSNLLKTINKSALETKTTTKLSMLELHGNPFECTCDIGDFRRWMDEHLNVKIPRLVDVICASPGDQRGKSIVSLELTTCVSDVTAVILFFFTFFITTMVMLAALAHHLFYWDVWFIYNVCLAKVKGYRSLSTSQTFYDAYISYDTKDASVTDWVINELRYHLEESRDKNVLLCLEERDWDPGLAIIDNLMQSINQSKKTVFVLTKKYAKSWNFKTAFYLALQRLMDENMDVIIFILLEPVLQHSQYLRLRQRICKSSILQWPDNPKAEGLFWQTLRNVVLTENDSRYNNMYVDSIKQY
The experiment in a line: TLR8 inhibition reporter assay (HEK-Blue cells, secreted embryonic alkaline phosphatase reporter). Conditions: HEK-Blue cells overexpressing human TLR8, stimulated with R848 15.9 μM; read-out: TLR 8 IC50. The procedure, abridged:
(§1)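 Read-out is SEAP colour from HEK-Blue Detection medium after 22 h at 37 °C, converted to percent inhibition between agonist-plus-DMSO and reference-inhibitor wells. Receptor-overexpressing HEK-Blue cells received compound over 0.05 nM–50 μM for 30 min before agonist: gardiquimod 7.5 μM for TLR7, R848 15.9 μM for TLR8, ODN2006 5 nM for TLR9.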
For orientation: Reporter assays use an easily measured gene product as a stand-in for the process of interest.

The target in the next test is T2, human TLR9 (Homo sapiens, UniProt Q9NR96).
T2 construct: host or cells: HEK-Blue cells (HEK293-derived reporter line)
T2 sequence (Q9NR96 26-1032): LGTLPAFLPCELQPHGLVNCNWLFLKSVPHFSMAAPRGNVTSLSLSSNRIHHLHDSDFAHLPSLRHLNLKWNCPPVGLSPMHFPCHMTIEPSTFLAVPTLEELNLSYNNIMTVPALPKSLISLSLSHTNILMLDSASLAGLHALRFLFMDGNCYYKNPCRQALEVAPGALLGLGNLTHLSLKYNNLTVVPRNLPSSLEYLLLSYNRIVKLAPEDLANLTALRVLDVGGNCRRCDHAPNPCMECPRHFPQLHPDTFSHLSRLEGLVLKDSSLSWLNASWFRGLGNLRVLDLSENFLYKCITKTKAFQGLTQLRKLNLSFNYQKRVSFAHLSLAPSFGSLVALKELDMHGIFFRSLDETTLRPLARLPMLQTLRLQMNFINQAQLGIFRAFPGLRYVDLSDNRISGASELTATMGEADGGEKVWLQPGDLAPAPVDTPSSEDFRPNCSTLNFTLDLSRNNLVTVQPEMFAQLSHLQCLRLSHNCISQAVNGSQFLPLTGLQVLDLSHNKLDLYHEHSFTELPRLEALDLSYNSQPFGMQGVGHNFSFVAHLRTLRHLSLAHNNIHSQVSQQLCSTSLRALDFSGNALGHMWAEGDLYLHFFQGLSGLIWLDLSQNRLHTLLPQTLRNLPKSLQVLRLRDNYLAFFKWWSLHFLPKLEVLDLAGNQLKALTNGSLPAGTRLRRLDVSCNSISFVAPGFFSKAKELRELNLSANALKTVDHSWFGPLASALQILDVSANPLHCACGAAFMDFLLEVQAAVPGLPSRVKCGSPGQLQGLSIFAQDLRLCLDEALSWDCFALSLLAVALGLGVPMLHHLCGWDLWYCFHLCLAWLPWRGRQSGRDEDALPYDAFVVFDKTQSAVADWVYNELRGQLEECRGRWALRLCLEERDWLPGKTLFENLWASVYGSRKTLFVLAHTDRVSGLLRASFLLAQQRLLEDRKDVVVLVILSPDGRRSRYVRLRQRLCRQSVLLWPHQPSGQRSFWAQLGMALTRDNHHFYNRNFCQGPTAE
In words: TLR9 inhibition reporter assay (HEK-Blue cells, secreted embryonic alkaline phosphatase reporter). The procedure, abridged:
as §1

The target in a further test is T3, human TLR7 (Homo sapiens, UniProt Q9NYK1).
T3 construct: host or cells: HEK-Blue cells (HEK293-derived reporter line)
T3 sequence (Q9NYK1 27-1049): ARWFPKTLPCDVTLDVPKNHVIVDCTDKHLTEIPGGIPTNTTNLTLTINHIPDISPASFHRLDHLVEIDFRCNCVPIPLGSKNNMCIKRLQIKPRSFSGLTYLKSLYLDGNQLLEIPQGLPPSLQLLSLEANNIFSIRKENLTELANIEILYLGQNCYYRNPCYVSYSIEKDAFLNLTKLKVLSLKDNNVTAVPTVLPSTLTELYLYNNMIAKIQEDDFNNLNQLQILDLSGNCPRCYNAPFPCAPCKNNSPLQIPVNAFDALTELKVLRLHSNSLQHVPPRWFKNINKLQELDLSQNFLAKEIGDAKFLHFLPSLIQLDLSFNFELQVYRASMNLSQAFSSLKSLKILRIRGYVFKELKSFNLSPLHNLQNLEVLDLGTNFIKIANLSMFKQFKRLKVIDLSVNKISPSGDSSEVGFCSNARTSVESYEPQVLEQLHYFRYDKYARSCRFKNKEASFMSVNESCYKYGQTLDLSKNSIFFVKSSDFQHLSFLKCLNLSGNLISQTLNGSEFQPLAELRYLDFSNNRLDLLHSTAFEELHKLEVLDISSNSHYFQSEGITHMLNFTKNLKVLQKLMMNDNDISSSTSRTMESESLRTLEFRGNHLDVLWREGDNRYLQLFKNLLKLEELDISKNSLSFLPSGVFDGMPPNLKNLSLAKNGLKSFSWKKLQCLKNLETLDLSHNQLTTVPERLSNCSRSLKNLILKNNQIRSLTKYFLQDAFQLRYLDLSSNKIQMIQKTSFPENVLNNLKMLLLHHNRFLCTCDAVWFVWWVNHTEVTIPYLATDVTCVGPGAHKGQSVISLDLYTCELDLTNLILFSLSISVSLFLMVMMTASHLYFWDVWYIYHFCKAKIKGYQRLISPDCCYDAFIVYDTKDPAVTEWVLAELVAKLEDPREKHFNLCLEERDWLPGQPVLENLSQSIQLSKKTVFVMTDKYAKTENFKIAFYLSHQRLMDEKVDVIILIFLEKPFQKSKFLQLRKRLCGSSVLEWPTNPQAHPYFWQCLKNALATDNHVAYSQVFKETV
In words: TLR7 inhibition reporter assay (HEK-Blue cells, secreted embryonic alkaline phosphatase reporter). Conditions: HEK-Blue cells overexpressing human TLR7, stimulated with gardiquimod 7.5 μM; read-out: TLR 7 IC50. The procedure, abridged: as §1

The mark [1] stands for this setting: HEK-Blue cells overexpressing human TLR9, stimulated with ODN2006 5 nM, read-out: TLR 9 IC50.

Read-outs that look alike come from different tables or passages of the source. Bounds are passed on as bounds.

Usually IC50 stands for the concentration at which inhibition is half-maximal. As for `Cn1c(-c2ccc(S(C)(=O)=O)cc2)nc2cc(F)c(C3CCN(C4CCN(C5COC5)CC4)CC3)cc21` [Example 225, 5-fluoro-1-methyl-2-(4-(methylsulfonyl)phenyl)-6-(1′-(oxetan-3-yl)-[1,4′-bipiperidin]-4-yl)-1H-benzo[d]imidazole], the IC50 is > 50000 nM at human TLR8, 5400 nM against human TLR9, 5350 nM at human TLR9 (setting [1]) and > 50000 nM on human TLR7.

In the case of `Cn1c(-c2ccc(S(C)(=O)=O)cc2)nc2cc(F)c(C3CCN(C4CCN(C5CCOCC5)CC4)CC3)cc21` [Example 226, 5-fluoro-1-methyl-2-(4-(methylsulfonyl)phenyl)-6-(1′-(tetrahydro-2H-pyran-4-yl)-[1,4′-bipiperidin]-4-yl)-1H-benzo[d]imidazole], the IC50 at human TLR8 is > 50000 nM; against human TLR9, 900 nM; on human TLR9 (setting [1]), 898 nM; at human TLR7, > 50000 nM.

Take `COCCN1CCC(N2CCC(c3cc4c(cc3F)nc(-c3ccc(S(C)(=O)=O)cc3)n4C)CC2)CC1` [Example 227, 5-fluoro-6-(1′-(2-methoxyethyl)-[1,4′-bipiperidin]-4-yl)-1-methyl-2-(4-(methylsulfonyl)phenyl)-1H-benzo[d]imidazole]: the IC50 on human TLR8 was > 50000 nM; against human TLR9 it was 410 nM; on human TLR9 (setting [1]) it was 407 nM; at human TLR7 it was 27400 nM.

With `Cn1c(-c2ccc(S(C)(=O)=O)cc2)nc2cc(F)c(C3CCN(C4CC5CCC(C4)N5CC4CC4)CC3)cc21` (stereo not shown) [Example 230, 6-(1-(8-(cyclopropylmethyl)-8-azabicyclo[3.2.1]octan-3-yl)piperidin-4-yl)-5-fluoro-1-methyl-2-(4-(methylsulfonyl)phenyl)-1H-benzo[d]imidazole], the IC50 on human TLR8 was > 50000 nM; at human TLR9, 36 nM; on human TLR9 (setting [1]), 36 nM; at human TLR7 it was 32400 nM.

With `Cn1c(-c2ccc(S(C)(=O)=O)cc2)nc2cc(F)c(C3CCN(C4CC5CCC(C4)N5CC4CC4)CC3)cc21` (stereo not shown) [Example 231, 6-(1-(8-(cyclopropylmethyl)-8-azabicyclo[3.2.1]octan-3-yl)piperidin-4-yl)-5-fluoro-1-methyl-2-(4-(methylsulfonyl)phenyl)-1H-benzo[d]imidazole], the IC50 on human TLR8 was > 50000 nM; against human TLR9 it was 58 nM; at human TLR9 (setting [1]) it was 58 nM; at human TLR7 it was > 50000 nM.

`Cn1c(-c2ccc(S(C)(=O)=O)cc2)nc2cc(F)c(C3CCN(C4CC5CCC(C4)N5C4CCC4)CC3)cc21` (stereo not shown) [Example 232, 6-(1-(8-cyclobutyl-8-azabicyclo[3.2.1]octan-3-yl)piperidin-4-yl)-5-fluoro-1-methyl-2-(4-(methylsulfonyl)phenyl)-1H-benzo[d]imidazole]: the IC50 was > 50000 nM at human TLR8, 45 nM against human TLR9, 45 nM at human TLR9 (setting [1]) and 22400 nM on human TLR7.

With `Cn1c(-c2ccc(S(C)(=O)=O)cc2)nc2cc(F)c(C3CCN(C4CC5CCC(C4)N5C4CCC4)CC3)cc21` (stereo not shown) [Example 233, 6-(1-(8-cyclobutyl-8-azabicyclo[3.2.1]octan-3-yl)piperidin-4-yl)-5-fluoro-1-methyl-2-(4-(methylsulfonyl)phenyl)-1H-benzo[d]imidazole], the IC50 is > 50000 nM at human TLR8, 58 nM against human TLR9, 58 nM on human TLR9 (setting [1]) and 29000 nM at human TLR7.

As to `Cn1c(-c2ccc(S(C)(=O)=O)cc2)nc2cc(F)c(C3CCN(C4CC5CCC(C4)N5C4CCOCC4)CC3)cc21` (stereo not shown) [Example 236, 5-fluoro-1-methyl-2-(4-(methylsulfonyl)phenyl)-6-(1-(8-(tetrahydro-2H-pyran-4-yl)-8-azabicyclo[3.2.1]octan-3-yl)piperidin-4-yl)-1H-benzo[d]imidazole], the IC50 at human TLR8 is > 50000 nM; against human TLR9, 99 nM; on human TLR9 (setting [1]), 99 nM; at human TLR7, > 50000 nM.

As for `Cn1c(-c2ccc(S(C)(=O)=O)cc2)nc2cc(F)c(C3CCN(C4CC5CCC(C4)N5C4CCOCC4)CC3)cc21` (stereo not shown) [Example 237, 5-fluoro-1-methyl-2-(4-(methylsulfonyl)phenyl)-6-(1-(8-(tetrahydro-2H-pyran-4-yl)-8-azabicyclo[3.2.1]octan-3-yl)piperidin-4-yl)-1H-benzo[d]imidazole], the IC50 on human TLR8 was > 50000 nM; on human TLR9, 87 nM; at human TLR9 (setting [1]) it was 87 nM; on human TLR7, > 50000 nM.

As for `CC(C)CN1CCC(N2CCC(c3cc4nc(-c5ccc(S(C)(=O)=O)cc5)n(C)c4cc3F)CC2)CC1` [Example 240, 6-fluoro-5-(1′-isobutyl-[1,4′-bipiperidin]-4-yl)-1-methyl-2-(4-(methylsulfonyl)phenyl)-1H-benzo[d]imidazole], the IC50 at human TLR8 was > 50000 nM; at human TLR9, 120 nM; at human TLR9 (setting [1]), 121 nM; at human TLR7, 6600 nM.
